Test results from patent US7741327B2 (Hoffmann-La Roche Inc., priority 2008, dated 2010).

Target: T1, Recombinant human liver GK1 (GST-GK) (Homo sapiens, UniProt P35557)
T1 construct: made in house; host or cells: E. coli
T1 sequence (P35557 1-466 isoform P35557-2): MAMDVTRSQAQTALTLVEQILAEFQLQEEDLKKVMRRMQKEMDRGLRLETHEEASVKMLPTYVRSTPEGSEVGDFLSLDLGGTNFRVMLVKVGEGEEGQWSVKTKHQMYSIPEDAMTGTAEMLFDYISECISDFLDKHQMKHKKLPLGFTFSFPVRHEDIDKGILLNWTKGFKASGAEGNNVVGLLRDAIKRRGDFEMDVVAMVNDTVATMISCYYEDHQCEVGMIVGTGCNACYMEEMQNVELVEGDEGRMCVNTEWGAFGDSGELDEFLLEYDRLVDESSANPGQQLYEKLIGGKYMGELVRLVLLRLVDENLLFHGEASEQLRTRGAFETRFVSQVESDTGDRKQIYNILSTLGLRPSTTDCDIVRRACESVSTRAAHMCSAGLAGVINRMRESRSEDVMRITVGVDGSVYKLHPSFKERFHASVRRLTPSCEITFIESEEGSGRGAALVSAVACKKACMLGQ
Test: In vitro glucokinase activity (G6PDH-coupled NADH assay)
Assay type: biochemical
Settings: for SC1.5 (concentration of activator that produced a 50% increase in the activity of GK): 30° C., 5 mM D-glucose, 10% DMSO
Summary of the method: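 GST-tagged human liver GK1 from E. coli, assayed at 30° C in 25 mM Hepes pH 7.1 with 5 mM D-glucose, 1 mM ATP, 1.8 mM NAD and G6PDH coupling, 10% DMSO final; reaction started with enzyme after 10 min preincubation. NADH formation followed at OD340; SC1.5 is activator concentration giving 50% increase over DMSO control rate.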

SMILES	SC1.5 (concentration of activator that produced a 50% increase in the activity of GK) [µM]	fold act. @ 30 μM (at 30 μM test compound) [fold]
CCOc1ccc(F)c(OC2=CC(=O)N([C@@H](CC(C)C)C(=O)Nc3ccn(C[C@@H](O)CO)n3)C2)c1F [Example 117, (S)-2-[4-(3-Ethoxy-2,6-difluoro-phenoxy)-2-oxo-2,5-dihydro-pyrrol-1-yl]-4-methyl-pentanoic acid [1-((R)-2,3-dihydroxy-propyl)-1H-pyrazol-3-yl]-amide]	0.034	–
CCOc1cccc(OC2=CC(=O)N([C@@H](CC(C)C)C(=O)Nc3ccn(C[C@@H](O)CO)n3)C2)c1F [Example 115, (S)-2-[4-(3-Ethoxy-2-fluoro-phenoxy)-2-oxo-2,5-dihydro-pyrrol-1-yl]-4-methyl-pentanoic acid [1-((R)-2,3-dihydroxy-propyl)-1H-pyrazol-3-yl]-amide]	0.027	–
Cc1nsc(NC(=O)[C@H](CC(C)C)N2CC(Oc3ccccc3Cl)=CC2=O)n1 [Example 107, (S)-2-[4-(2-Chloro-phenoxy)-2-oxo-2,5-dihydro-pyrrol-1-yl]-4-methyl-pentanoic acid (3-methyl-[1,2,4]thiadiazol-5-yl)-amide]	> 30	1.4
COC(C)(C)Cn1ccc(NC(=O)[C@H](CC2CCCC2)N2CC(OC(C)C)=CC2=O)n1 [Example 22, (S)-3-Cyclopentyl-N-[1-(2-methoxy-2-methyl-propyl)-1H-pyrazol-3-yl]-2-(4-isopropoxy-2-oxo-2,5-dihydro-pyrrol-1-yl)-propionamide]	1.048	–
COc1ccccc1OC1=CC(=O)N(C(COC(C)(C)C)C(=O)Nc2ccn(CC(C)(C)O)n2)C1 (stereo not drawn) [Example 35, 3-t-Butoxy-N-[1-(2-hydroxy-2-methyl-propyl)-1H-pyrazol-3-yl]-2-[4-(2-methoxy-phenoxy)-2-oxo-2,5-dihydro-pyrrol-1-yl]-propionamide]	9.491	–
CC(C)(O)Cn1ccc(NC(=O)[C@H](CC2CCCCC2)N2CC(Oc3cccc4c3OCCO4)=CC2=O)n1 [Example 33, (S)-3-Cyclohexyl-2-[4-(2,3-dihydro-benzo[1,4]dioxin-5-yloxy)-2-oxo-2,5-dihydro-pyrrol-1-yl]-N-[1-(2-hydroxy-2-methyl-propyl)-1H-pyrazol-3-yl]-propionamide]	0.035	–
CC(C)C[C@@H](C(=O)Nc1ccn(C[C@@H](O)CO)n1)N1CC(Oc2c(F)ccc(OC(C)C)c2F)=CC1=O [Example 134, (S)-2-[4-(2,6-Difluoro-3-isopropoxy-phenoxy)-2-oxo-2,5-dihydro-pyrrol-1-yl]-4-methyl-pentanoic acid [1-((R)-2,3-dihydroxy-propyl)-1H-pyrazol-3-yl]-amide]	0.069	–
Cc1cccc(OC2=CC(=O)N([C@@H](CC(C)C)C(=O)Nc3ccn(CCO)n3)C2)c1F [Example 133, (S)-2-[4-(2-Fluoro-3-methyl-phenoxy)-2-oxo-2,5-dihydro-pyrrol-1-yl]-4-methyl-pentanoic acid [1-(2-hydroxy-ethyl)-1H-pyrazol-3-yl]-amide]	0.249	–
CC(C)C[C@@H](C(=O)Nc1cnccn1)N1CC(Oc2cccc(C(O)CO)c2F)=CC1=O (stereo partly drawn) [Example 155, (S)-2-{4-[3-(1,2-Dihydroxy-ethyl)-2-fluoro-phenoxy]-2-oxo-2,5-dihydro-pyrrol-1-yl}-4-methyl-pentanoic acid pyrazin-2-ylamide]	1.717	–
Cc1cccc(OC2=CC(=O)N([C@@H](CC(C)C)C(=O)Nc3ccn(CCO[Si](C)(C)C(C)(C)C)n3)C2)c1F [Example 132, (S)-2-[4-(2-Fluoro-3-methyl-phenoxy)-2-oxo-2,5-dihydro-pyrrol-1-yl]-4-methyl-pentanoic acid {1-[2-(t-butyl-dimethyl-silanyloxy)-ethyl]-1H-pyrazol-3-yl}-amide]	0.577	–
CC(C)C[C@@H](C(=O)Nc1ccn(CC(C)(C)O)n1)N1CC(Oc2cccc(C#N)c2)=CC1=O [Example 138, (S)-2-[4-(3-Cyano-phenoxy)-2-oxo-2,5-dihydro-pyrrol-1-yl]-4-methyl-pentanoic acid [1-(2-hydroxy-2-methyl-propyl)-1H-pyrazol-3-yl]-amide]	3.733	–

Results, then the compound that gave them:

SC1.5 (concentration of activator that produced a 50% increase in the activity of GK) [µM]	fold act. @ 30 μM (at 30 μM test compound) [fold]	SMILES
7.56	–	Cc1nc2c(OC3=CC(=O)N([C@@H](CC(C)C)C(=O)Nc4ccn(CC(C)(C)O)n4)C3)cccc2o1 [Example 243, (S)-4-Methyl-2-[4-(2-methyl-benzooxazol-4-yloxy)-2-oxo-2,5-dihydro-pyrrol-1-yl]-pentanoic acid [1-(2-hydroxy-2-methyl-propyl)-1H-pyrazol-3-yl]-amide]
1.125	–	CC(C)C[C@@H](C(=O)Nc1ccn(C[C@@H](O)CO)n1)N1CC(Oc2cccc(CC(C)(C)O)c2)=CC1=O [Example 238, (S)-2-{4-[3-(2-Hydroxy-2-methyl-propyl)-phenoxy]-2-oxo-2,5-dihydro-pyrrol-1-yl}-4-methyl-pentanoic acid [1-((R)-2,3-dihydroxy-propyl)-1H-pyrazol-3-yl]-amide]
1.109	–	CC(C)(O)Cn1ccc(NC(=O)C(CC2C3CCC2CC3)N2CC(Oc3ccccc3Cl)=CC2=O)n1 (stereo not drawn) [Example 229, 3-bicyclo[2.2.1]hept-7-yl-2-[4-(2-chloro-phenoxy)-2-oxo-2,5-dihydro-pyrrol-1-yl]-N-[1-(2-hydroxy-2-methyl-propyl)-1H-pyrazol-3-yl]-propionamide]
6.393	–	CC(C)C[C@@H](C(=O)Nc1ccn(C[C@@H](N)CO)n1)N1CC(Oc2ccccc2Cl)=CC1=O [Example 180, (S)-2-[4-(2-chloro-phenoxy)-2-oxo-2,5-dihydro-pyrrol-1-yl]-4-methyl-pentanoic acid [1-((R)-2-amino-3-hydroxy-propyl)-1H-pyrazol-3-yl]-amide]
0.133	–	CC(C)C[C@@H](C(=O)Nc1ccn(C[C@H]2COC(C)(C)O2)n1)N1CC(Oc2ccccc2Cl)=CC1=O [Example 174, (S)-2-[4-(2-Chloro-phenoxy)-2-oxo-2,5-dihydro-pyrrol-1-yl]-4-methyl-pentanoic acid [1-((S)-2,2-dimethyl-[1,3]dioxolan-4-yl-methyl)-1H-pyrazol-3-yl]-amide]
0.306	–	COc1cccc(OC2=CC(=O)N([C@@H](CC(C)C)C(=O)Nc3ccn(C[C@@H](O)CO)n3)C2)c1 [Example 160, (S)-2-[4-(3-Methoxy-phenoxy)-2-oxo-2,5-dihydro-pyrrol-1-yl]-4-methyl-pentanoic acid [1-((R)-2,3-dihydroxy-propyl)-1H-pyrazol-3-yl]-amide]
0.253	–	CC(C)(O)Cn1ccc(NC(=O)[C@H](CC2CCCCC2)N2CC(Oc3ccccc3OCc3ccccc3)=CC2=O)n1 [Example 203, (S)-2-[4-(2-benzyloxy-phenoxy)-2-oxo-2,5-dihydro-pyrrol-1-yl]-3-cyclohexyl-N-[1-(2-hydroxy-2-methyl-propyl)-1H-pyrazol-3-yl]-propionamide]
2.636	–	CC(C)C[C@@H](C(=O)Nc1ccn(C[C@@H](O)CO)n1)N1CC(Oc2cccc3c2cnn3C)=CC1=O [Example 240, (S)-4-Methyl-2-[4-(1-methyl-1H-indazol-4-yloxy)-2-oxo-2,5-dihydro-pyrrol-1-yl]-pentanoic acid [1-((R)-2,3-dihydroxy-propyl)-1H-pyrazol-3-yl]-amide]
0.07	–	COc1cccc(OC2=CC(=O)N([C@@H](CC3CCCCC3)C(=O)Nc3ccn(CC(C)(C)O)n3)C2)c1OC [Example 199, (S)-3-cyclohexyl-2-[4-(2,3-dimethoxy-phenoxy)-2-oxo-2,5-dihydro-pyrrol-1-yl]-N-[1-(2-hydroxy-2-methyl-propyl)-1H-pyrazol-3-yl]-propionamide]
0.014	–	CC(C)(O)Cn1ccc(NC(=O)[C@H](C[C@H]2C[C@H](C)C2)N2CC(Oc3ccccc3Cl)=CC2=O)n1 (single isomer, unassigned) [Example 215]
17.303	–	O=C(Nc1ccn(C[C@@H](O)CO)n1)C(CC(F)F)N1CC(Oc2ccccc2Cl)=CC1=O (stereo partly drawn) [Example 221, 2-[4-(2-Chloro-phenoxy)-2-oxo-2,5-dihydro-pyrrol-1-yl]-N-[1-((R)-2,3-dihydroxy-propyl)-1H-pyrazol-3-yl]-4,4-difluoro-butyramide]
0.197	–	CC[C@@H](C)CC(C(=O)Nc1ccn(C[C@@H]2COC(C)(C)O2)n1)N1CC(Oc2ccccc2Cl)=CC1=O (stereo partly drawn) [Example 252, (R)-2-[4-(2-Chloro-phenoxy)-2-oxo-2,5-dihydro-pyrrol-1-yl]-4-methyl-hexanoic acid [1-((R)-2,2-dimethyl-[1,3]dioxolan-4-ylmethyl)-1H-pyrazol-3-yl]-amide]
